Marks after values point to notes of the source that are not given here.
Key:
Type in all cases: physicochemical
[1] = Investigation of I-3 Form A in different humidity (VH-XRPD, humidity chamber); settings: for form after humidity chamber (XRPD): 1 week
Method: According to the DVS result of I-3 Form A, two hydrate forms (a mono-hydrate, and a bis-hydrate) may exist when relative humidity is above 50% RH. Variable humidity XRPD (VH-XRPD) was investigated attempting to capture the potential hydrate(s).
To further evaluate form conversion of I-3 Form A, this salt was placed in different humidity (30% RH, 40% RH and 50% RH) chambers for 1 week.
I-3 Form A was used as starting material. One RH cycle was applied at 25° C. XRPD analysis was carried out in each specific relative humidity. Cycle: 39% RH (initial)-10% RH (2h)-40% RH (2h)-50% RH (2h)-70% RH (2h). Meanwhile, I-3 Form A was exposed to 30% RH, 40% RH and 50% RH chamber for 1 week. Samples were analyzed by XRPD using air tight container.

[2] = Investigation of factors impacting racemization
Source text: Therefore, the factors impacting racemization were investigated including pH, temperature, molecular sieve and experimental duration. […] It is worth noted that racemization can be accelerated when solvents are pretreated by molecular sieve, since the pH value is shifted to basic after pretreatment.
During DSC test for I-1 Form A, different heating rates result in different thermal events. To investigate whether racemization occurs during heating, I-1 Form A was heated to different temperatures then obtained solids were tested by SFC.

[3] = Stability of I-1 solution during concentration (pH, temperature; chiral purity); settings: for Purity / ee %: 1N HCl; for ee %: start ee 98.43%
[4] = Granulation simulation experiments
Method: (§1) Ethanol (without pretreatment by molecular sieve) and pure water were added drop wise to about 20 mg of I-1 Form A separately until solid is wetted sufficiently. Manually grind the samples with a mortar and pestle for about 5 min. Samples were dried under ambient condition for 10 min. Form transformation and degree of crystallinity were evaluated by XRPD.
as §1, with “of” for “of I-1”

[5] = Stability of I-1 solution during concentration (pH, temperature; chiral purity); settings: for ee % before concentration: starting value before stirring; for ee % of the product after stirring: from 98.20%
Method: To study the chiral stability of product I-1 during concentration, three batches I-1 from Prep-HPLC was tried under different conditions: 1) The ee % of the product changes from 98.20% to 78.95% after stirring over 18 h at 45-50° C. with pH 6-7. 2) The ee % of the product changes from 98.20% to 97.64% after stirring over 18 h at 20-25° C. with pH 6-7. 3) The ee % of the product changes from 98.20% to 98.15% after stirring over 18 h at 45-50° C. with pH 5-6.
Two reactions at 0.5 g I-1 (after SFC preparation) were carried out for stability study. 1) Compound is stable after stirring over 20 h at 10-20° C. with pH 4. 2) The ee % of this compound change from 98.43% to 98.16% after stirring over 20 h at 40-50° C. with pH 4.

[6] = Stability of III-1 & I-1 solid; settings: after 55 days; initial 99.2%
[7] = Light impact on chiral purity
Method: Four reactions were carried out to study the impact of light on chiral purity under neutral and basic condition.

[8] = Behavior under compression
Method: About 20 mg of I-1 Form A was compressed for 5 minutes at 2 MPa, 5 MPa and 10 MPa with a hydraulic press. XRPD characterization was performed to investigate the polymorphic behavior under compression.
About 20 mg of Form A was compressed for 5 minutes at 2 MPa, 5 MPa and 10 MPa with a hydraulic press. XRPD characterization was performed to investigate the polymorphic behavior under compression.

[9] = after heating to 260° C. at 2° C./min by DSC
[10] = after heating to 300° C. at 2° C./min by DSC
[11] = 10-20° C. MeOH, pH 4, stir for 4 h

For `N#Cc1c(-c2cc(NC(=O)c3cc(F)cc(C(F)(F)F)c3)c3c(c2)C(=O)N[C@H]3c2cc(F)ccc2Cl)ccc2ncnn12` [Compound I-3], the “form after humidity chamber (XRPD)” value ([1]; 30% RH) was “additional peaks belongs to Form B”, the “form after humidity chamber (XRPD)” value ([1]; 40% RH and 50% RH) was “converted to I-3 Form B” and the “I-3 Form B pattern in VH-XRPD” value ([1]; 50% RH, 25° C.) was “started to show up”. The “form by VH-XRPD” value ([1]; 70% RH, 25° C.) was “fully converted to a new form, I-3 Form B”, the XRPD ([1]; Chamber, 25° C., 30% RH (1 week), air tight container for XRPD) was “I-3 Form A + 2Theta 17.5°” and the XRPD ([1]; Chamber, 25° C., 40% RH (1 week), air tight container for XRPD) was “I-3 Form B”. For the same compound, the XRPD ([1]; Chamber, 25° C., 50% RH (1 week), air tight container for XRPD) was “I-3 Form B”, the XRPD ([1]; VH-XRPD, 25° C., 10% RH (2 h)) was “I-3 Form A” and the XRPD ([1]; VH-XRPD, 25° C., 39% RH (initial)) was “I-3 Form A”. The XRPD ([1]; VH-XRPD, 25° C., 40% RH (2 h)) was “I-3 Form A”, the XRPD ([1]; VH-XRPD, 25° C., 50% RH (2 h)) was “I-3 Form A + 2Theta 17.3°” and the XRPD ([1]; VH-XRPD, 25° C., 70% RH (2 h)) was “I-3 Form B”.

In the case of `N#Cc1c(-c2cc(NC(=O)c3cc(F)cc(C(F)(F)F)c3)c3c(c2)C(=O)N[C@H]3c2cc(F)ccc2Cl)ccc2ncnn12` [Compound I-1, (R)-N-(3-(2-chloro-5-fluorophenyl)-6-(5-cyano-[1,2,4]triazolo[1,5-a]pyridin-6-yl)-1-oxoisoindolin-4-yl)-3-fluoro-5-(trifluoromethyl)benzamide], the “ee %(SFC)” value ([2]; Batch #1 as received, SFC after preparation for 12 h) is reported as “ee % (SFC): 97.7%#;”, the “ee %(SFC)” value ([2]; Batch #1 as received, SFC immediately after preparation) is reported as “ee % (SFC): 100.0%*” and the XRPD [2, 9] is reported as “XRPD: low crystallinity”. For the same compound, the “ee %(SFC)” value [2, 9] was “ee % (SFC): 88.1%*”, the “ee %(SFC)” value ([2]; after heating to 270° C. at 2° C./min by DSC) was “ee % (SFC): 10.9%*” and the XRPD [2, 10] was “XRPD: amorphous form”. For the same compound, the “ee %(SFC)” value [2, 10] was “ee % (SFC): 2.2%*”, the “racemization during heating (DSC, solids tested by SFC)” value ([2]; certain high temperatures) was “racemization indeed occurred” and the “racemization in different solvents” value ([2]; sped up by basic pH, high temperature, longer time, exposure to light) was “racemization easily occurs”. For the same compound, the Purity [3, 11] was 99.53%, the ee % [3, 11] was 98.33% and the stability in solution ([3]; 10˜20° C. within 68 h) was “stable”. For the same compound, the ee % ([3]; 40-50° C. MeOH, pH 4, stir for 4 h) was 98.38%, the Purity ([3]; 40-50° C. MeOH, pH 4, stir for 68 h) was 99.29% and the “form change on granulation simulation (XRPD)” value ([4]; ethanol and water) was “no form change”. The XRPD ([4]; granulation simulation with Ethanol) was “No form and crystallinity change”, the XRPD ([4]; granulation simulation with water) was “No form and crystallinity change” and the Purity ([5]; 10-20° C. MeOH, 1N HCl, pH 4, stir for 20 h) was 99.54%. The ee % ([5]; 10-20° C. MeOH, 1N HCl, pH 4, stir for 20 h, start ee 98.43%) was 98.39%, the Purity ([5]; 10-20° C. MeOH, 1N HCl, pH 4, stir for 68 h) was 99.53% and the ee % ([5]; 10-20° C. MeOH, 1N HCl, pH 4, stir for 68 h, start ee 98.43%) was 98.27%. It also gave an ee % ([5]; 20-25° C. MeOH, pH 6-7, stir for 18 h, start ee 98.20%) of 97.64%, a Purity ([5]; 40-50° C. MeOH, 1N HCl, pH 4, stir for 4 h) of 99.51% and a Purity ([5]; 40-50° C. MeOH, 1N HCl, pH 4, stir for 20 h) of 99.37%. The ee % ([5]; 40-50° C. MeOH, 1N HCl, pH 4, stir for 20 h, start ee 98.43%) was 98.16%, the ee % ([5]; 40-50° C. MeOH, 1N HCl, pH 4, stir for 68 h, start ee 98.43%) was 97.92% and the “purity and chiral purity change in solution” value ([5]; 40˜50° C. stirring for 68 h) was “slight degrade”. For the same compound, the ee % ([5]; 45-50° C. MeOH, 1N HCl, pH 5-6, stir for 18 h, start ee 98.20%) was 98.15%, the ee % ([5]; 45-50° C. MeOH, pH 6-7, stir for 18 h, start ee 98.20%) was 78.95% and the “ee % before concentration” value ([5]; I-1 after SFC preparation) was “ee % 98.43%”. For the same compound, the “ee % before concentration” value ([5]; I-1 from Prep-HPLC) was “ee % 98.20%”, the “stability of compound I-1 solution” value ([5]; dependence on pH) was “stable when pH at 4˜5” and the “ee % of the product after stirring” value ([5]; over 18 h at 20-25° C. with pH 6-7) was 97.64%. For the same compound, the “ee % of the product after stirring” value ([5]; over 18 h at 45-50° C. with pH 5-6) was 98.15%, the “ee % of the product after stirring” value ([5]; over 18 h at 45-50° C. with pH 6-7) was 78.95% and the stability after stirring ([5]; over 20 h at 10-20° C. with pH 4) was “stable”. The “ee % after stirring” value ([5]; over 20 h at 40-50° C. with pH 4, from 98.43%) was 98.16%, the “purity of solid after storage” value [6] was 99.2% and the ee % ([7]; Avoid light, basic (KOAc), 1 h) was 97.91%. For the same compound, the ee % ([7]; Avoid light, basic (KOAc), 6 h) was 94.79%, the ee % ([7]; Avoid light, basic (KOAc), 24 h) was 80.92% and the ee % ([7]; Avoid light, basic (KOAc), 96 h) was 43.30%. The ee % ([7]; Avoid light, neutral, 0 h) was 98.96%, the ee % ([7]; Avoid light, neutral, 6 h) was 98.94% and the ee % ([7]; Avoid light, neutral, 24 h) was 98.96%. For the same compound, the ee % ([7]; Avoid light, neutral, 96 h) was 98.92%, the ee % ([7]; Under light, basic (KOAc), 6 h) was 94.35% and the ee % ([7]; Under light, basic (KOAc), 24 h) was 76.17%. It also gave an ee % ([7]; Under light, basic (KOAc), 96 h) of 30.84%, an ee % ([7]; Under light, neutral, 6 h) of 98.87% and an ee % ([7]; Under light, neutral, 24 h) of 97.15%. For the same compound, the ee % ([7]; Under light, neutral, 96 h) was 81.68%, the “ee % of product after stirring for 96 h” value ([7]; base system, avoid-light condition) was 43.30% and the “ee % of product after stirring for 96 h” value ([7]; base system, under-light condition) was 30.84%. For the same compound, the “ee % of product after stirring for 96 h” value ([7]; neutral system, avoid-light condition) was “almost unchanged”, the “ee % of product after stirring for 96 h” value ([7]; neutral system, under-light condition) was 81.68% and the “XRPD peaks after compression” value [8] was “slightly broader”. The “form change under compression (XRPD)” value ([8]; 5 minutes at 2, 5 and 10 MPa) was “no form change”, the XRPD ([8]; compressed for 5 minutes at 2 Mpa) was “No form change, but peaks became slightly broader” and the XRPD ([8]; compressed for 5 minutes at 5 Mpa) was “No form change, but peaks became slightly broader”. For the same compound, the XRPD ([8]; compressed for 5 minutes at 10 Mpa) was “No form change, but peaks became slightly broader”.
